Source: ChEMBL document CHEMBL1147600, “Synthesis of 5'-C-methyl-1',3'-dioxolan-4'-yl nucleosides” (Bioorg Med Chem Lett, 2004)
Calls of active or inactive are those of the source. The calls are words filed in the database; no cut-off is given here.

Legend:
[1] = Toxicity against human lymphocytes was determined up to 100 uM concentration; NA means Not Active
[2] = system: Huh-7; assay: Toxicity against human Huh7 cells was determined up to 100 uM concentration; NA means Not Active; assay type: cell-based
[3] = system: HepG2; assay: Toxicity against human hepatoma HepG2 cells was determined up to 100 uM concentration; NA means Not Active; assay type: cell-based
[4] = system: Hepatitis B virus; assay: Activity of compound against hepatitis B virus was determined; IA means inactive; assay type: functional, organism-based
[5] = system: Hepatitis C virus; assay: Activity of compound against hepatitis C virus was determined; IA means inactive; assay type: functional, organism-based; details: Hepacivirus hominis
[6] = system: Hepatitis B virus; assay: Compound was evaluated against hepatitis B virus; IA means inactive; assay type: functional, organism-based
[7] = system: Hepatitis C virus; assay: Compound was evaluated against hepatitis C virus; IA means inactive; assay type: functional, organism-based; details: Hepacivirus hominis

SMILES | Toxicity [1] | Toxicity [2] | Toxicity [3] | Activity [4] | Activity [5] | Activity [6] | Activity [7]
C[C@H]1O[C@@H](COC(=O)c2ccccc2)O[C@@H]1n1cc(F)c(N)nc1=O | Not Active | Not Active | Not Active | inactive | inactive | – | –
C[C@H]1O[C@@H](COC(=O)c2ccccc2)O[C@H]1n1cc(F)c(N)nc1=O | Not Active | Not Active | Not Active | – | – | inactive | inactive
C[C@H]1O[C@@H](CO)O[C@@H]1n1cc(F)c(N)nc1=O | Not Active | Not Active | Not Active | – | – | inactive | inactive
C[C@H]1O[C@@H](CO)O[C@H]1n1cc(F)c(N)nc1=O | Not Active | Not Active | Not Active | – | – | inactive | inactive
C[C@@H]1OC(CO)OC1n1cc(F)c(N)nc1=O (stereo not given in full) | Not Active | Not Active | Not Active | – | – | inactive | inactive
